Reference: article PMC9159852, “Synthesis, Structure, and Biologic Activity of Some Copper, Nickel, Cobalt, and Zinc Complexes with 2-Formylpyridine N^4-Allylthiosemicarbazone” (Bioinorganic Chemistry and Applications, 2022)
Like-named read-outs stand apart in the source and are kept apart here.

Key:
[1] = tested on: human cervical epithelial (HeLa) cell line; test: Antiproliferative activity (MTS and Resazurin assays), HeLa; assay type: cell-based; settings: for IC50: HeLa; for SI (selectivity index): IC50(MDCK)/IC50(HeLa)
Method: (§1) The antiproliferative activity of the studied substances was determined toward a series of cancer cell lines (HL-60 (ATCC CCL-240), BxPC-3 (ATCC CRL-1687), HeLa (ATCC CCL-2), RD (ATCC CCL-136)), and a normal cell line (MDCK (ATCC CCL-34)). These cell lines were cultured in accordance with the previously described method. Determination of the number of viable cells after cultivation in the presence of various concentrations of the studied substances was carried out by the MTS and Resazurin assays according to the previously described method. The 10-mM stock solutions of the studied compounds as well as the reference compound (doxorubicin) were prepared by dissolving 10 μmol of the corresponding compound in 1 mL of DMSO. The 0.1, 1, 10, and 100 μM solutions were prepared by dilution of the stock solutions with the corresponding medium and used for the study of antiproliferative activity.

[2] = tested on: human leukemia HL-60 cell line; test: Antiproliferative activity (MTS and Resazurin assays), HL-60; assay type: cell-based; settings: for inhibition at 0.1 µM / inhibition at 1 µM / inhibition at 10 µM: read-out: Inhibition of cell proliferation, (%); for IC50: HL-60, Table 3; for SI (selectivity index): IC50(MDCK)/IC50(HL-60)
Method: as §1

[3] = tested on: normal kidney epithelial (MDCK) cell line; test: Antiproliferative activity (MTS and Resazurin assays), MDCK normal cell line; assay type: cell-based
Method: as §1

[4] = tested on: human muscle rhabdomyosarcoma (RD) cell line; test: Antiproliferative activity (MTS and Resazurin assays), RD; assay type: cell-based; settings: for IC50: RD; for SI (selectivity index): IC50(MDCK)/IC50(RD)
Method: as §1

[5] = tested on: human epithelial pancreatic adenocarcinoma (BxPC-3) cell line; test: Antiproliferative activity (MTS and Resazurin assays), BxPC-3; assay type: cell-based; settings: for SI (selectivity index): IC50(MDCK)/IC50(BxPC-3)
Method: as §1

[6] = Acute toxicity assay against Daphnia magna; settings: Daphnia magna, in vivo, pH 7.5
Method: (§2) The general toxicity of the tested compounds was evaluated using Daphnia magna (Straus, 1820). Daphnia magna was originated from a culture maintained parthenogenetically at the Institute of Zoology (Laboratory of Systematics and Molecular Phylogeny).
(§3) The test design was based on ISO 6341 : 2012. The test-organisms Daphnia magna Straus were fed with Chlorella vulgaris. These unicellular algae were grown using aseptic technology to exclude contamination of the culture by bacteria, algae or protozoa. Chlorella vulgaris were cultivated in Prat's growth medium containing KNO3 (1 μM), MgSO4·7H2O (40 μM), K2HPO4·3H2O (400 μM), FeCl3·6H2O (3.6 μM) in H2O distilled (adjusted the pH to 7.0, autoclaved and stored at 5°C).
(§4) D. magna was maintained in aerated aqueous straw infusion growth media supplemented with CaCl2 ([…]), NaHCO3 (2.59 g/L), KCl (0.23 g/L), and MgSO4, 7H2O (4.93 g/L). (pH∼7.5 ± 0.2; O2 ≥ 6.0 mg/L).
(§5) Juveniles were selected according to their size and kept in fresh medium for 24 h. D. magna was cultured in Costar® 24-well culture clear sterile multiple well plates covered by a lid to prevent the possibility of contamination and evaporation but at the same time to allow gaseous exchange between air and culture medium. Each well contained 10 daphnids in 1000 μL final volume of each dilution of the tested compounds.
(§6) The bioassay was then repeated at the concentrations ranging from 0.1 to 100 μM (0.1, 1, 10, and 100 μM) in order to determine LC50 for each compound, including doxorubicin (the positive control). Aqueous straw infusion growth media was used to dilute the stock solutions to the required concentrations. […] A 0.1% solution of DMSO in aerated medium (pH∼7.5 ± 0.2; O2 ≥ 6.0 mg/L) was used as a negative control. Throughout the experiment, the juvenile daphnids were incubated at 22 ± 2 °C, using a 16 h/8 h light/dark cycle (500–1000 lx). The mobility (viability) of the test organisms was observed after the 24-h exposure. The experiment was performed in triplicate.
(§7) The percentage of viability (V (%)) of Daphnia magna was calculated according to the formula:(1) V%=Nsample/Ncontrol×100.
(§8) N - Number of viability of Daphnia magna.
(§9) The compounds median lethal concentration that kills 50% of the juvenile daphnids (LC50) values were calculated from the dose-response equation determined by the least squares fit method.

[7] = tested on: Staphylococcus aureus (ATCC 25923); test: Antibacterial activity, serial dilutions in liquid broth, S. aureus; assay type: cell-based; settings: S. aureus (G+)
Method: (§10) Antibacterial and antifungal properties of the studied substances were determined on a series of standard strains of Gram-positive microorganisms (Staphylococcus aureus (ATCC 25923)), Gram-negative microorganisms (Escherichia coli (ATCC 25922)), and fungi (Candida albicans (ATCC 10231)) using the method of serial dilutions in liquid broth. Stock solutions of the studied compounds as well as the reference compounds (furacillinum and nystatin) were prepared by dissolving 10 mg of the corresponding compound in 1 mL of DMSO. After that, the starting solutions (1 mg/mL) were prepared by tenfold dilution of the stock solution with nutrition medium (2% of peptonate bullion). The next dilutions were prepared by serial double dilution with the nutrition medium.

[8] = Antiradical activity, ABTS•+ method; settings: read-out: IC50 toward ABTS•+ radical cation
Method: The ABTS^•+ method was applied for the determination of antiradical activity of the studied substances. Standard solutions of ABTS^•+ radical cations and tested substances as well as the conditions of spectrophotometric measurements and calculations of inhibition were made as described. The 10-mM stock solutions of the studied compounds as well as the reference compound (trolox) were prepared by dissolving 10 μmol of the corresponding compound in 1 mL of DMSO. The 1, 10, 100, and 1000 μM solutions were prepared by the dilution of stock solutions with DMSO. After that, 20 μL of each tested compound solutions was transferred in a 96-well microtiter plate, and 180 μL of ABTS^•+ working solution was added to receive solutions with final concentrations of tested compounds 0.1, 1, 10, and 100, respectively.

[9] = tested on: Escherichia coli (ATCC 25922); test: Antibacterial activity, serial dilutions in liquid broth, E. coli; assay type: cell-based; settings: E. coli (G-)
Method: as §10

Daphnia magna = test: Acute toxicity assay against Daphnia magna; settings: 24 h exposure; for LC50: Daphnia magna
Method: as §2, §3, §4, §5, §6, §7, §8, §9

[10] = tested on: Candida albicans (ATCC 10231); test: Antifungal activity, serial dilutions in liquid broth, C. albicans; assay type: cell-based
Method: as §10

[11] = other: exposure in the test medium (immersion)

| SMILES | SI (selectivity index) [1] | SI (selectivity index) [2] | SI (selectivity index) [4] | SI (selectivity index) [5] | IC50 [1] [nM] | MBC [7] [µg/mL] | MIC [7] [µg/mL] | IC50 [8] [nM] | Inhibition of cell proliferation, (%) ([2]; HL-60, 0.1 μM) | Inhibition of cell proliferation, (%) ([2]; HL-60, 1 μM) | Inhibition of cell proliferation, (%) ([2]; HL-60, 10 μM) | IC50 [2] [nM] | IC50 [3] [nM] | IC50 [4] [nM] | MIC [9] [µg/mL] | IC50 ([5]; BxPC-3) [nM] | V, (%) percentage of viability of Daphnia magna (Daphnia magna; 0.1 μM) [%] | V, (%) percentage of viability of Daphnia magna (Daphnia magna; 1 μM) [%] | V, (%) percentage of viability of Daphnia magna (Daphnia magna; 10 μM) [%] | V, (%) percentage of viability of Daphnia magna (Daphnia magna; 100 μM) [%] | further results |
| --- | --- | --- | --- | --- | --- | --- | --- | --- | --- | --- | --- | --- | --- | --- | --- | --- | --- | --- | --- | --- | --- |
| COc1cccc2c1C(=O)c1c(O)c3c(c(O)c1C2=O)C[C@@](O)(C(=O)CO)C[C@@H]3O[C@H]1C[C@H](N)[C@H](O)[C@H](C)O1 [Doxorubicin, doxorubicin, reference compound] | 0.71 | 35.5 | 0.44 | 1.9 |  |  |  |  |  |  |  |  |  |  |  |  |  |  |  |  | IC50 ([1]; Homo sapiens): 10000 ± 400 nM; inhibition at 0.1 µM ([2]; Homo sapiens, HL-60, 0.1 μM): 16.5 ± 1.8%; inhibition at 1 µM ([2]; Homo sapiens, HL-60, 1 μM): 92.9 ± 0.7%; inhibition at 10 µM ([2]; Homo sapiens, HL-60, 10 μM): 95 ± 0.6%; IC50 ([2]; Homo sapiens): 200 ± 100 nM; IC50 ([3]; Canis lupus familiaris): 7100 ± 300 nM; IC50 ([4]; Homo sapiens): 16200 ± 600 nM; IC50 ([5]; Homo sapiens, BXPC-3): 3700 ± 300 nM; viability at 24 h, 0.1 µM [6, 11]: 87.2 ± 7.3%; viability at 24 h, 1 µM [6, 11]: 76.9 ± 7.3%; viability at 24 h, 10 µM [6, 11]: 25.6 ± 7.3%; viability at 24 h, 100 µM [6, 11]: 0%; LC50 at 24 h [6]: 3300 ± 1100 nM |
| C=CCNC(=S)N/N=C/c1cccnc1 [HL^a] |  |  |  |  |  |  |  |  |  |  |  |  |  |  |  |  |  |  |  |  | inhibition at 0.1 µM ([2]; Homo sapiens, HL-60, 0.1 μM): 0.9 ± 0.2%; inhibition at 1 µM ([2]; Homo sapiens, HL-60, 1 μM): 1.5 ± 0.5%; inhibition at 10 µM ([2]; Homo sapiens, HL-60, 10 μM): 6.1 ± 0.3% |
| C=CCNC(=NN=Cc1ccccn1)[S][Cu][Cl] [compound 2, [Cu(L)Cl]] | 7.5 | 30 | 23 | 60 | 400 ± 30 | 0.244 | 0.122 | > 100000 | 40.2 ± 2.8 | 99.2 ± 0.2 | 99.4 ± 0.6 | 100 ± 60 | 3000 ± 400 | 130 ± 20 | 3.91 | 50 ± 20 | 102.6 ± 0.0 | 97.4 ± 7.3 | 0.0 | 0.0 | MBC [9]: 7.81 µg/mL; LC50 (Daphnia magna): 3500 ± 2800 nM; MFC [10]: 31.3 µg/mL; MIC [10]: 15.6 µg/mL |
| C=CCNC(=NN=Cc1ccccn1)[S][Cu][Br] [compound 3, [Cu(L)Br]] | 21 | 62 | 31 | 103 | 300 ± 30 | 0.488 | 0.244 | 43000 ± 2100 | 24.5 ± 1.9 | 100.0 ± 0.3 | 100.0 ± 0.1 | 100 ± 40 | 6200 ± 1400 | 200 ± 100 | 7.81 | 60 ± 10 | 102.6 ± 0.0 | 97.4 ± 7.3 | 0.0 | 0.0 | MBC [9]: 15.6 µg/mL; LC50 (Daphnia magna): 3500 ± 2800 nM; MFC [10]: 15.6 µg/mL; MIC [10]: 7.81 µg/mL |
| C=CCNC(=NN=Cc1ccccn1)[S][Cu][O]C(C)=O.C=CCNC(=NN=Cc1ccccn1)[S][Cu][O]C(C)=O.O.O.O.O [compound 4, [Cu2(L)2(CH3COO)2]·4H2O] | 10 | 20 | 40 | 100 | 200 ± 20 | 0.488 | 0.244 | 40300 ± 1800 | 32.0 ± 2.3 | 99.8 ± 0.2 | 100.0 ± 0.2 | 100 ± 20 | 2000 ± 200 | 50 ± 10 | 1.95 | 20 ± 10 | 76.9 ± 7.3 | 66.7 ± 7.3 | 0.0 | 0.0 | MBC [9]: 3.91 µg/mL; LC50 (Daphnia magna): 1300 ± 500 nM; MFC [10]: 62.5 µg/mL; MIC [10]: 31.3 µg/mL |
| C=CCNC(=S)NN=Cc1ccccn1.C=CCNC(=S)NN=Cc1ccccn1.O.[Cl-].[Cl-].[Ni+2] [compound 5, [Ni(HL)2]Cl2·H2O] |  | >1000 | >34 | >27 | > 100000 | 31.3 | 15.6 | 8600 ± 100 | 54.5 ± 1.1 | 94.9 ± 0.7 | 108.5 ± 0.5 | 90 ± 10 | > 100000 | 2900 ± 400 | 1000 | 3600 ± 900 | 102.6 ± 0.0 | 102.6 ± 0.0 | 97.4 ± 7.3 | 87.2 ± 7.3 | Effect on growth and proliferation of normal MDCK cell line (in words) [3]: practically do not affect the growth and proliferation; LC50 (Daphnia magna): > 100000 nM; MIC [10]: 500 µg/mL |
| C=CCNC([S-])=NN=Cc1ccccn1.C=CCNC([S-])=NN=Cc1ccccn1.[Cl-].[Co+3] [compound 6, [Co(L)2]Cl] | >40 |  |  | >24 | 2500 ± 500 | 125 | 62.5 | > 100000 | 4.1 ± 0.3 | 6.9 ± 1.7 | 24.1 ± 0.6 | > 10000 | > 100000 | > 100000 | 250 | 4100 ± 500 | 97.4 ± 7.3 | 97.4 ± 7.3 | 92.3 ± 0.0 | 35.9 ± 7.3 | Effect on growth and proliferation of normal MDCK cell line (in words) [3]: practically do not affect the growth and proliferation; MBC [9]: 500 µg/mL; LC50 (Daphnia magna): 65400 ± 11800 nM; MFC [10]: 250 µg/mL; MIC [10]: 62.5 µg/mL |
